pIC50: −log10 of the molar value. “Also recorded” adds a separate entry of the source.
Experiments:
[1] = test system: HT-1080 cells; experiment: Cell viability assays in HT-1080 cells, ferroptosis induced by IKE or RSL3 (Example 8); assay type: cell-based; details: for pIC50: Homo sapiens, HT-1080, 48 h
[2] = test system: R6/2 mice; experiment: 45-day drinking water and PO study of ferrostatins in R6/2 mice (weight, survival, Rotarod, Catwalk, LC/MS); assay type: in vivo
Protocol: Ferrostatins and 42 μM Citric acid were dissolved in 5% DMSO, 5% ethanol, and 90% PBS rendering a final concentration of 0.29 mg/mL of each ferrostatin in drinking water. The mice drink ˜2 mL water per day, and the resulting dosage was around 20-30 mg/kg/day. R6/2 mice at ˜6-7 weeks of age were treated via drinking water and PO at 20 mg/kg. Mice were weighed daily, the weight recorded, and the change in body weight compared to the baseline, pre-injection weight was calculated. Any mouse that lost more than 20% of its baseline body weight for three consecutive days was euthanized prior to the completion of the study. Mice were euthanized by CO2 asphyxiation for 3 min after administration. Approximately 0.5 mL of blood was collected via cardiac puncture and immediately put in K3 EDTA microtubes and kept on ice. Brains were harvested, placed in Eppendorf tubes, and frozen on dry ice. Blood samples were centrifuged for 10 min at 2,100×g at 4° C., then plasma was transferred to a clean tube and frozen on dry ice.
Brain samples were weighed and placed in hard tissue homogenizing tubes. Two volume of HPLC grade methanol was added to make a solution and homogenized using the Omni Bead Ruptor 4 at speed 5 for two 30-second runs. The product was aliquoted and diluted by adding 900 μL HPLC grade ice-cold methanol. After centrifugation for 20 mins at 14,000×g at 4° C., supernatant was collected in a clean vial and dried by vacuum centrifugation (GeneVac).
Prior to LC-MS analysis, the samples were resuspended in 100 μL methanol and centrifuged for 5 minutes at 14,000×g at 4° C. The supernatant was analyzed via SYNAPT High Resolution Mass Spectrometer.
Rotarod “Linear Incline” experiment was performed with 11- to 12-week-old R6/2 mice at Day 25 with a rotations per minute (RPM) ramp over a 300s duration, start speed of 5 RPM, and max speed of 40 RPM. Mice were acclimated to testing room for 30 minutes prior to experimentation. Latency to fall was recorded in seconds for each mouse, and lanes were cleaned with 70% ethanol between mice.
The Catwalk apparatus (Noldus Information Technology, Leesburg, VA) consisted of an illuminated walled glass walkway (130 cm×10 cm) and a high-speed camera underneath. Mice were allowed 30 minutes to acclimate to the testing room, then behavioral task was performed with 11- to 12-week-old R6/2 mice on Day 25. Mice were placed on the glass walkway and allowed to ambulate freely across the runway towards the goal box at the end of the walkway. A goal box blocked the other end of the walkway, forcing the mouse to return to the entryway. Each mouse completed Catwalk runs until three compliant runs (fluent crossings without stopping/hesitation), were detected and verified, running for as long as needed to do so. Behavioral measures were calculated using Noldus Gait Analysis Software, and pairing and further comparisons were done using RM one-way ANOVAs.
The pharmacokinetic properties of TH-4-55-2 were initially assessed in vivo, focusing on its BBB distribution. Subsequent investigations involved TH-4-67 and TH-2-31. […] This regimen continued for 45 days, during which changes in body weight were monitored (FIG. 29A). Mouse body weights that fell under 20% of baseline measurements were sacrificed, while spontaneous deaths over the course of the study were monitored (FIG. 29B). Motor coordination was assessed via Rotarod behavior measurements (FIG. 30), and gait analysis was conducted using CatWalk (FIGS. 31A-31B).

[3] = ^b 2 μM IKE, 48 hours, 1,000 cells/well
[4] = ^c 0.2 μM RSL3, 48 hours, 1,000 cells/well

SMILES	pIC50 [1, 3]	pIC50 [1, 4]	potency relative to fer-1 at suppressing ferroptosis, in words [1]	Catwalk gait: Base of Support (BOS) ([2]; PO, Day 25)	also measured
CCOC(=O)c1ccc(NC2CCCCC2)c(N)c1 [Fer-1, Ferrostatin-1, reference compound]	8.04	8.44	–	–	–
Cc1noc(-c2ccc(NC3CCCCC3)c(NC3CCCCC3)c2)n1 [PHB4082, N1,N2-dicyclohexyl-4-(3-methyl-1,2,4-oxadiazol-5-yl)benzene-1,2-diamine]	–	–	more potent than fer-1	–	–
Cc1noc(-c2cnc(NC3CCCCC3)c(NC3CCCCC3)c2)n1 [TH-2-31, N^2,N^3-dicyclohexyl-5-(3-methyl-1,2,4-oxadiazol-5-yl)pyridine-2,3-diamine]	8.25	8.32	potencies greater than fer-1	significantly worse BOS compared to Vehicle; also recorded: significantly worse performance	–
CCC(CC)Nc1cc(-c2nc(C)no2)cnc1NC1CCCCC1 [TH-4-55-2, N^2-cyclohexyl-5-(3-methyl-1,2,4-oxadiazol-5-yl)-N^3-(pentan-3-yl)pyridine-2,3-diamine]	–	–	–	–	Rotarod latency to fall ([2]; PO 20 mg/kg, Day 25, 20 mg/kg): consistently scored higher compared to control; also recorded: consistently higher mean latency to fall across trials compared to control; accumulation in brain over plasma ([2]; PO and drinking water, 45-day course): preferentially accumulated in the brain over plasma for both routes of administration
Cc1noc(-c2cnc(NC3CCCC3)c(NC3CCCC3)c2)n1 [TH-4-67, N^2,N^3-dicyclopentyl-5-(3-methyl-1,2,4-oxadiazol-5-yl)pyridine-2,3-diamine]	–	–	–	significant decrease in Base of Support (BOS); also recorded: significant improvement of BOS in the hind paws of least coordinated mice	Catwalk gait: Cadence ([2]; PO, Day 25, Best performing mice): the leading compound among this group

— patent US20240156790A1, “COMPOUNDS, COMPOSITIONS, AND METHODS FOR MODULATING FERROPTOSIS AND TREATING EXCITOTOXIC DISORDERS” (THE TRUSTEES OF COLUMBIA UNIVERSITY IN THE CITY OF NEW YORK, priority 2018, published 2024)
